# Experimental data: patent US12582647B2, “Systems and methods for treating an opioid-induced adverse pharmacodynamic response” (Purdue Pharma L.P., priority 2012, dated 2026)
# How the values were obtained:
# rat gastric emptying = test: Stomach weight after charcoal meal (gastric emptying); type: in vivo, male Sprague-Dawley rats; conditions: morphine sulfate 1-10 mg/kg SC 0.5 h before charcoal meal, vs vehicle; FIG. 1B
# Procedure: Morphine sulfate (1-10 mg/kg) or 0.9% normal saline (vehicle) was administered SC to the test subjects. 0.5 hour later, a charcoal meal (1 ml/100 grams) was administered PO to the test subjects. One hour after the charcoal meal, the test subjects were euthanized by CO2 and the stomachs were removed and weighed. Data were analyzed using a one-way ANOVA followed by the Dunnett's Multiple Comparisons test where *P<0.05, **P<0.01 and ***P<0.001. […] This effect was dose dependent with a greater magnitude of effect observed with increasing dose.
# [1] = tested on: acute thermal pain in the rat; test: Rat hot plate assay (response latency, % MPE)
# Procedure: Morphine sulphate (1-10 mg/kg) was dissolved in 0.9% normal saline solution (NSS)(vehicle) and administered SC 1 hour prior to testing against vehicle. Data were analyzed by a two-way ANOVA using a Bonferroni Multiple Comparison Test,***P<0.001.
# Morphine sulphate (1-10 mg/kg) was dissolved in 0.9% normal saline solution (NSS)(vehicle) and administered SC 1 hour prior to testing against vehicle. % MPE=Percent Maximum Possible Effect. % MPE=(test latency-baseline)/(cutoff-baseline). Data was analyzed using a Bonferroni Multiple Comparison Test,***P<0.001.
# Morphine sulphate (10 mg/kg), the positive control, was dissolved in 0.9% NSS (vehicle). The formulations were administered SC 1 hour prior to testing against vehicle. Data were analyzed by a two-way ANOVA using a Bonferroni multiple comparisons test, where *P<0.05 and ***P <0.001. Data are represented as the means+S.E.M.
# Morphine sulphate (10 mg/kg) was dissolved in 0.9% NSS (vehicle). The formulations were administered SC 1 hour prior to testing against vehicle. % MPE=Percent Maximum Possible Effect. % MPE=(test latency-baseline)/(cutoff (30 s)-baseline). Data were analyzed by a two-way ANOVA using Bonferroni Multiple Comparisons test for post-hoc analysis, where *P<0.05 and ***P<0.001. Data are represented as the means+SEM.
# The positive control, morphine sulfate in 0.9% NS, was administered SC 1 hour prior to testing. Rats were assessed one day prior (BL) and then 1, 3 and 5 hours post-dosing. Hot Plate was set to 52° C. and cutoff was 30 seconds. Data were analyzed by a two-way ANOVA using a Bonferroni Multiple Comparisons Test, where *P<0.05, ***P<0.001 and ****P<0.0001 versus vehicle. Data are represented as the means+S.E.M from two combined studies.
# Oxycodone hydrochloride (0.3-5 mg/kg) was dissolved in 0.9% normal saline solution (NSS)(vehicle) and administered SC 1 hour prior to testing against vehicle. Hot plate was set to 52° C. and cutoff was 30 seconds. Data were analyzed by a two-way ANOVA using a Bonferroni multiple comparisons test, where ****P<0.0001. Data are represented as the means+S.E.M.
# Compound was administered SC 1 hour prior to testing. Oxycodone hydrochloride (0.3-5 mg/kg) was dissolved in 0.9% normal saline solution (NSS)(vehicle) and administered SC 1 hour prior to testing against vehicle. Hot plate was set to 52° C. and cutoff was 30 seconds. % MPE=. Percent Maximum Possible Effect. % MPE=(test latency-baseline)/(cutoff (30 s)-baseline). Data were analyzed by a two-way ANOVA using Bonferroni Multiple Comparisons test for post-hoc analysis, ****P<0.000. Data are represented as the means+SEM.
# Oxycodone HCl was administered SC 1 hour prior to testing. Thermal latency was assessed the day prior (BL) and then 1, 3 and 5 hours post-oxycodone dosing. The hotplate was set to 52° C. and the cutoff was 30 seconds. Oxycodone was dissolved in 0.9% NS (vehicle). […] Data were analyzed by a two-way ANOVA using the Bonferroni Multiple Comparisons test for post-hoc analysis where, ***P<0.001. Data are represented as the means+SEM.
# Oxycodone HCl was administered PO 1 hour prior to testing, while morphine sulfate, the positive control, was administered SC 1 hour prior to testing. Behavior was assessed the day prior (BL) and then 1, 3, 5 and 24 hours post-compound administration. The hot plate was set to 52° C. and the cutoff was 30 seconds. Oxycodone was dissolved in water (vehicle), while morphine sulfate was dissolved in 0.9% NS. Data were analyzed by a two-way ANOVA using a Bonferroni Multiple Comparisons Test, where ****P<0.0001.
# Rats were assessed for thermal latency the day prior to dosing, then 1.5, 3 and 5 hours post-morphine administration. Data were analyzed by a two-way ANOVA using the Bonferroni Multiple Comparisons Test, where ****P<0.0001 compared to vehicle+vehicle.
# [2] = tested on: acute thermal pain in the rat; test: Rat tail flick assay (response latency, % MPE)
# Procedure: Morphine sulphate (1-10 mg/kg) was dissolved in 0.9% normal saline solution (NSS)(vehicle) and administered SC 1 hour prior to testing against vehicle. Data were analyzed by a two-way ANOVA using a Bonferroni post-hoc test, *P<0.05, ***P<0.001.
# Morphine sulphate (1-10 mg/kg) was dissolved in 0.9% normal saline solution (NSS)(vehicle) and administered SC 1 hour prior to testing against vehicle. % MPE=Percent of Maximum Possible Effect. % MPE=(test latency-baseline)/(cutoff(20 s)-baseline)*100. Data were analyzed by a two-way ANOVA using a Bonferroni post-hoc test, *P<0.05, **P<0.01, ***P<0.001.
# Morphine sulphate (10 mg/kg) was dissolved in 0.9% NSS (vehicle). The formulations were administered SC 1 hour prior to testing against vehicle. Data were analyzed by a two-way ANOVA using a Bonferroni multiple comparisons test, *P<0.05, ***P<0.001.
# Morphine sulphate (10 mg/kg) was dissolved in 0.9% NSS (vehicle). The formulations were administered SC 1 hour prior to testing against vehicle. % MPE=Percent Maximum Possible Effect. % MPE=(test latency-baseline)/(cutoff(20 s)-baseline)*100. Data were analyzed by a two-way ANOVA using a Bonferroni multiple comparisons test, ***P<0.001.
# The positive control, morphine sulfate in 0.9% NS was administered SC 1 hour prior to testing. Rats were assessed the day prior (BL) and then 1, 3 and 5 hours post-dosing. Tail Flick was set to 40 intensity and cutoff 20 seconds. Data were analyzed by a two-way ANOVA using a Bonferroni Multiple Comparisons Test, where *P<0.05,***P<0.001 and ****P<0.0001. Data are represented as the means+S.E.M of two combined studies.
# Oxycodone hydrochloride (0.3-5 mg/kg) was dissolved in 0.9% normal saline solution (NSS)(vehicle) and administered SC 1 hour prior to testing against vehicle. Data were analyzed by a two-way ANOVA using a Bonferroni multiple comparisons test, ****P<0.001.
# Oxycodone hydrochloride (0.3-5 mg/kg) was dissolved in 0.9% normal saline solution (NSS)(vehicle) and administered SC 1 hour prior to testing against vehicle. % MPE=Percent Maximum Possible Effect. % MPE=(test latency-baseline)/(cutoff(20 s)-baseline)*100. Data were analyzed by a two-way ANOVA using a Bonferroni multiple comparisons test, ****P<0.001.
# Oxycodone HCl and vehicle were administered SC 1 hour prior to testing. Rats were assessed one day prior (BL) and then 1, 3 and 5 hours post-oxycodone administration. The tail flick was set to an intensity of 40 and the cutoff was 20 seconds. Oxycodone was dissolved in 0.9% (vehicle). […] Data were analyzed by a two-way ANOVA followed by the Bonferroni Multiple Comparisons Test where, *P<0.05 and ****P<0.001.
# Oxycodone HCl was administered PO 1 hour prior to testing, while morphine sulfate, the positive control, was administered SC 1 Hour prior to testing. Behavior was assessed the day prior (BL) to dosing, and then 1, 3, 5 and 24 hours post-compound administration. The tail flick was set to an intensity of 40 and 20 seconds was used as the cutoff. Oxycodone was dissolved in water (vehicle), while morphine was dissolved in 0.9% NS. Data were analyzed by a two-way ANOVA using a Bonferroni Multiple Comparisons Test, where *P<0.05, **P<0.01, ***P<0.001 and ****P<0.0001.
# Rats were assessed for tail flick latency the day prior to dosing, then 1.5, 3 and 5 hours post-morphine administration. Data were analyzed by a two-way ANOVA using the Bonferroni Multiple Comparisons Test, where ****P<0.0001 compared to vehicle+vehicle. Data are represented as the means+S.E.M.
# Rats were assessed for thermal latency 1.5, 3 and 5 hours post-morphine administration. % MPE=Percent Maximum Possible Effect. % MPE=(test latency-baseline)/(cutoff(20 s)-baseline)*100. Data were analyzed by a two-way ANOVA using a Bonferroni multiple comparisons test for post-hoc analysis where *P<0.05 and ****P<0.001. Data are represented as the means+SEM.
# Rats were tested 1 hour after oxycodone injection.
# rat GI transit = test: Charcoal meal GI transit in the rat, single agent; conditions: for GI transit: % of the small intestine travelled by a charcoal meal: vs vehicle
# Procedure: Rats were dosed with Oxycodone HCl/Oxy or vehicle (water) PO once daily for 5 days (chronic). Additional groups were dosed only once on day 5 (acute). […] One hour after charcoal, all rats were euthanized by CO2 and the GI tract was removed from the stomach to the cecum. The length of the small intestine and the distance (cm) to the leading edge of charcoal was recorded. Data were analyzed using a one-way ANOVA with Bonferonni's Multiple Comparison Test where * P<0.05, ****P<0.0001 vs. vehicle (chronic), ###vs. oxycodone (acute). Data are represented as the means+S.E.M.
SMILES,stomach weight (gastric emptying) (rat gastric emptying),"hot plate latency to nocifensive response ([1]; morphine sulphate 1-10 mg/kg SC 1 h prior to testing, FIG. 2A)","hot plate % of the maximal possible effect (% MPE) ([1]; morphine sulphate 1-10 mg/kg SC 1 h prior to testing, FIG. 2B)","tail flick latency to nocifensive response ([2]; morphine sulphate 1-10 mg/kg SC 1 h prior to testing, FIG. 3A)","tail flick % of the maximal possible effect (% MPE) ([2]; morphine sulphate 1-10 mg/kg SC 1 h prior to testing, FIG. 3B)","GI transit: % of the small intestine travelled by a charcoal meal (rat GI transit; morphine sulfate 1-10 mg/kg SC 0.5 h before charcoal meal, FIG. 1A)","rats found dead ([1]; oxycodone HCl 10 mg/kg SC, at the 3 hr time point)","hot plate MED (mitigates acute pain) ([1]; oxycodone HCl PO, FIG. 8D) [mg/kg]","hot plate MED (mitigates acute pain) ([1]; oxycodone HCl SC, FIG. 8C) [mg/kg]","hot plate latency to nocifensive response ([1]; oxycodone hydrochloride 0.3-5 mg/kg SC 1 h prior to testing, FIG. 8A)","hot plate % of the maximal possible effect (% MPE) ([1]; oxycodone hydrochloride 0.3-5 mg/kg SC 1 h prior to testing, FIG. 8B)","rats found dead ([2]; oxycodone HCl 10 mg/kg SC dosing group, at the 3 hr time point)","tail flick MED (mitigates acute pain) ([2]; oxycodone HCl PO, FIG. 9D) [mg/kg]","tail flick MED (mitigates acute pain) ([2]; oxycodone HCl SC, FIG. 9C) [mg/kg]","tail flick latency to nocifensive response ([2]; oxycodone hydrochloride 0.3-5 mg/kg SC 1 h prior to testing, FIG. 9A)","tail flick % of the maximal possible effect (% MPE) ([2]; oxycodone hydrochloride 0.3-5 mg/kg SC 1 h prior to testing, FIG. 9B)","tolerance to inhibition of GI transit (rat GI transit; oxycodone HCl PO once daily for 5 days (chronic) vs single dose on day 5 (acute), FIG. 7D)","GI transit: % of the small intestine travelled by a charcoal meal (rat GI transit; oxycodone hydrochloride 0.3-5 mg/kg SC 1 h before charcoal meal, FIG. 7A)"
"CN1CC[C@]23c4c5ccc(O)c4O[C@H]2[C@@H](O)C=C[C@H]3[C@H]1C5.O=S(=O)(O)O [morphine, morphine sulphate]",increased stomach weight due to delayed gastric emptying,provides analgesia,provides analgesia,provides analgesia,provides analgesia,decreases gastrointestinal transit,,,,,,,,,,,,
"COc1ccc2c3c1O[C@H]1C(=O)CC[C@@]4(O)[C@@H](C2)N(C)CC[C@]314.Cl [oxycodone, oxycodone hydrochloride]",,,,,,,4 out of 10,10,3,provides analgesia,provides analgesia,4 out of 10,10,3,provides analgesia,provides analgesia,produces some tolerances to its acute effect on the inhibition of GI transit,decreases gastrointestinal transit
